The source made the active and inactive calls. How the calls were made is not given here.
System: CCRIS mutagenicity, Ames/micronucleus/aberration tests
Test: CCRIS mutagenicity studies
[1] = Test System: AMES SALMONELLA TYPHIMURIUM, Strain/Indicator: TA98, Metabolic Activation: NONE, Method: PREINCUBATION
[2] = Test System: AMES SALMONELLA TYPHIMURIUM, Strain/Indicator: TA100, Metabolic Activation: NONE, Method: PREINCUBATION

In the case of `Nc1ncnc2c1nc(-c1ccc([N+](=O)[O-])cc1)n2-c1ccc([N+](=O)[O-])cc1`, the mutagenic call (Test System: AMES SALMONELLA TYPHIMURIUM, Strain/Indicator: TA98(1,8-DNP), Metabolic Activation: NONE, Method: PREINCUBATION) was “active; positive”, the mutagenic call (Test System: AMES SALMONELLA TYPHIMURIUM, Strain/Indicator: TA98(1,8-DNP), Metabolic Activation: RAT, LIVER, S-9, PCB, Method: PREINCUBATION) was “active; positive” and the mutagenic call (Test System: AMES SALMONELLA TYPHIMURIUM, Strain/Indicator: TA98(NR), Metabolic Activation: NONE, Method: PREINCUBATION) was “active; positive”. The mutagenic call (Test System: AMES SALMONELLA TYPHIMURIUM, Strain/Indicator: TA98(NR), Metabolic Activation: RAT, LIVER, S-9, PCB, Method: PREINCUBATION) was “active; positive”, the mutagenic call [1] was “active; positive” and the mutagenic call (Test System: AMES SALMONELLA TYPHIMURIUM, Strain/Indicator: TA98, Metabolic Activation: RAT, LIVER, S-9, PCB, Method: PREINCUBATION) was “active; positive”. The mutagenic call (Test System: AMES SALMONELLA TYPHIMURIUM, Strain/Indicator: TA100(1,8-DNP), Metabolic Activation: NONE, Method: PREINCUBATION) was “inactive; negative”, the mutagenic call (Test System: AMES SALMONELLA TYPHIMURIUM, Strain/Indicator: TA100(1,8-DNP), Metabolic Activation: RAT, LIVER, S-9, PCB, Method: PREINCUBATION) was “inactive; negative” and the mutagenic call (Test System: AMES SALMONELLA TYPHIMURIUM, Strain/Indicator: TA100(NR), Metabolic Activation: NONE, Method: PREINCUBATION) was “inactive; negative”. The mutagenic call (Test System: AMES SALMONELLA TYPHIMURIUM, Strain/Indicator: TA100(NR), Metabolic Activation: RAT, LIVER, S-9, PCB, Method: PREINCUBATION) was “inactive; negative”, the mutagenic call [2] was “active; positive” and the mutagenic call (Test System: AMES SALMONELLA TYPHIMURIUM, Strain/Indicator: TA100, Metabolic Activation: RAT, LIVER, S-9, PCB, Method: PREINCUBATION) was “active; positive”. For the same compound, the mutagenic call (Test System: AMES SALMONELLA TYPHIMURIUM, Strain/Indicator: YG1020, Metabolic Activation: NONE, Method: PREINCUBATION) was “active; positive”, the mutagenic call (Test System: AMES SALMONELLA TYPHIMURIUM, Strain/Indicator: YG1020, Metabolic Activation: RAT, LIVER, S-9, PCB, Method: PREINCUBATION) was “active; positive” and the mutagenic call (Test System: AMES SALMONELLA TYPHIMURIUM, Strain/Indicator: YG1021, Metabolic Activation: NONE, Method: PREINCUBATION) was “active; positive”. For the same compound, the mutagenic call (Test System: AMES SALMONELLA TYPHIMURIUM, Strain/Indicator: YG1021, Metabolic Activation: RAT, LIVER, S-9, PCB, Method: PREINCUBATION) was “active; positive”, the mutagenic call (Test System: AMES SALMONELLA TYPHIMURIUM, Strain/Indicator: YG1024, Metabolic Activation: NONE, Method: PREINCUBATION) was “active; positive” and the mutagenic call (Test System: AMES SALMONELLA TYPHIMURIUM, Strain/Indicator: YG1024, Metabolic Activation: RAT, LIVER, S-9, PCB, Method: PREINCUBATION) was “active; positive”. The mutagenic call (Test System: AMES SALMONELLA TYPHIMURIUM, Strain/Indicator: YG1025, Metabolic Activation: NONE, Method: PREINCUBATION) was “active; positive”, the mutagenic call (Test System: AMES SALMONELLA TYPHIMURIUM, Strain/Indicator: YG1025, Metabolic Activation: RAT, LIVER, S-9, PCB, Method: PREINCUBATION) was “active; positive” and the mutagenic call (Test System: AMES SALMONELLA TYPHIMURIUM, Strain/Indicator: YG1026, Metabolic Activation: NONE, Method: PREINCUBATION) was “active; positive”. The mutagenic call (Test System: AMES SALMONELLA TYPHIMURIUM, Strain/Indicator: YG1026, Metabolic Activation: RAT, LIVER, S-9, PCB, Method: PREINCUBATION) was “active; positive”, the mutagenic call (Test System: AMES SALMONELLA TYPHIMURIUM, Strain/Indicator: YG1029, Metabolic Activation: NONE, Method: PREINCUBATION) was “active; positive” and the mutagenic call (Test System: AMES SALMONELLA TYPHIMURIUM, Strain/Indicator: YG1029, Metabolic Activation: RAT, LIVER, S-9, PCB, Method: PREINCUBATION) was “active; positive”.

In the case of `ClCc1ccc(Cl)cc1`, the mutagenic call (End Point: In vitro chromosomal aberrations, Test System: Chinese hamster lung (CHL/IU) cells, Metabolic Activation: Rat, Liver, S9, Phenobarbital and 5,6-benzoflavone) was “active; positive (structural changes and ploidy). precipitation in the culture medium at”, the mutagenic call [1] was “inactive; negative” and the mutagenic call (Test System: AMES SALMONELLA TYPHIMURIUM, Strain/Indicator: TA98, Metabolic Activation: RAT LIVER S-9, PHENOBARBITAL AND BETA-NAPHTHOFLAVONE, Method: PREINCUBATION) was “inactive; negative”. For the same compound, the mutagenic call [2] was “inactive; negative”, the mutagenic call (Test System: AMES SALMONELLA TYPHIMURIUM, Strain/Indicator: TA100, Metabolic Activation: NONE, Method: STANDARD PLATE) was “inactive; negative” and the mutagenic call (Test System: AMES SALMONELLA TYPHIMURIUM, Strain/Indicator: TA100, Metabolic Activation: RAT LIVER S-9, PHENOBARBITAL AND BETA-NAPHTHOFLAVONE, Method: PREINCUBATION) was “inactive; negative”. The mutagenic call (Test System: AMES SALMONELLA TYPHIMURIUM, Strain/Indicator: TA102, Metabolic Activation: NONE, Method: PREINCUBATION) was “inactive; negative”, the mutagenic call (Test System: AMES SALMONELLA TYPHIMURIUM, Strain/Indicator: TA102, Metabolic Activation: RAT LIVER S-9, PHENOBARBITAL AND BETA-NAPHTHOFLAVONE, Method: PREINCUBATION) was “inactive; negative” and the mutagenic call (Test System: AMES SALMONELLA TYPHIMURIUM, Strain/Indicator: TA104, Metabolic Activation: NONE, Method: PREINCUBATION) was “inactive; negative”. For the same compound, the mutagenic call (Test System: AMES SALMONELLA TYPHIMURIUM, Strain/Indicator: TA104, Metabolic Activation: RAT LIVER S-9, PHENOBARBITAL AND BETA-NAPHTHOFLAVONE, Method: PREINCUBATION) was “inactive; negative”, the mutagenic call (Test System: AMES SALMONELLA TYPHIMURIUM, Strain/Indicator: TA1535, Metabolic Activation: NONE, Method: PREINCUBATION) was “inactive; negative” and the mutagenic call (Test System: AMES SALMONELLA TYPHIMURIUM, Strain/Indicator: TA1535, Metabolic Activation: RAT LIVER S-9, PHENOBARBITAL AND BETA-NAPHTHOFLAVONE, Method: PREINCUBATION) was “inactive; negative”. For the same compound, the mutagenic call (Test System: AMES SALMONELLA TYPHIMURIUM, Strain/Indicator: TA1537, Metabolic Activation: NONE, Method: PREINCUBATION) was “inactive; negative”, the mutagenic call (Test System: AMES SALMONELLA TYPHIMURIUM, Strain/Indicator: TA1537, Metabolic Activation: RAT LIVER S-9, PHENOBARBITAL AND BETA-NAPHTHOFLAVONE, Method: PREINCUBATION) was “inactive; negative” and the mutagenic call (Test System: E.COLI, Strain/Indicator: WP2UVRA/PKM101, Metabolic Activation: NONE, Method: PREINCUBATION) was “inactive; negative”. The mutagenic call (Test System: E.COLI, Strain/Indicator: WP2UVRA/PKM101, Metabolic Activation: RAT LIVER S-9, PHENOBARBITAL AND BETA-NAPHTHOFLAVONE, Method: PREINCUBATION) was “inactive; negative”, the mutagenic call (Test System: E.COLI, Strain/Indicator: WP2UVRA, Metabolic Activation: NONE, Method: PREINCUBATION) was “inactive; negative” and the mutagenic call (Test System: E.COLI, Strain/Indicator: WP2UVRA, Metabolic Activation: RAT LIVER S-9, PHENOBARBITAL AND BETA-NAPHTHOFLAVONE, Method: PREINCUBATION) was “inactive; negative”.

Source: PubChem BioAssay AID1259407 (Chemical Carcinogenesis Research Information System (CCRIS), 2018)
